# Assay results from US9493426B2, “Quinazolinone derivatives useful as FGFR kinase modulators” (priority 2013, dated 2016).
# pIC50: −log10 of the molar value.
# Tests used:
# FGFR3 (h) = FGFR3 (h) (Homo sapiens, UniProt P22607); assay: FGFR3 (enzymatic assay), TR-FRET; format: biochemical; settings: 25 μM ATP; pIC50 = -log IC50 (M); read-out: FGFR3 pIC50 (converted)
# FGFR1 = biological target: T1, FGFR1 (Homo sapiens, UniProt P11362); assay: Enzyme binding assay (KINOMEscan) FGFR1; settings: FGFR1_pKd, pKd = -log Kd (M)
# T1 construct: purchased DiscoveRx Corporation
# Experimental: (§1) Enzyme Binding Assays (KINOMEscan®)
# (§2) Kinase enzyme binding affinities of compounds disclosed herein were determined using the KINOMEscan® technology performed by DiscoveRx Corporation, San Diego, Calif., USA (www.kinomescan.com).
# FGFR2 (h) = FGFR2 (h) (Homo sapiens, UniProt P21802); assay: FGFR2 (enzymatic assay), TR-FRET; format: biochemical; settings: 0.4 μM ATP; pIC50 = -log IC50 (M); read-out: FGFR 2 pIC50 (converted)
# Chain of FGFR2 (h) (P21802 22-821): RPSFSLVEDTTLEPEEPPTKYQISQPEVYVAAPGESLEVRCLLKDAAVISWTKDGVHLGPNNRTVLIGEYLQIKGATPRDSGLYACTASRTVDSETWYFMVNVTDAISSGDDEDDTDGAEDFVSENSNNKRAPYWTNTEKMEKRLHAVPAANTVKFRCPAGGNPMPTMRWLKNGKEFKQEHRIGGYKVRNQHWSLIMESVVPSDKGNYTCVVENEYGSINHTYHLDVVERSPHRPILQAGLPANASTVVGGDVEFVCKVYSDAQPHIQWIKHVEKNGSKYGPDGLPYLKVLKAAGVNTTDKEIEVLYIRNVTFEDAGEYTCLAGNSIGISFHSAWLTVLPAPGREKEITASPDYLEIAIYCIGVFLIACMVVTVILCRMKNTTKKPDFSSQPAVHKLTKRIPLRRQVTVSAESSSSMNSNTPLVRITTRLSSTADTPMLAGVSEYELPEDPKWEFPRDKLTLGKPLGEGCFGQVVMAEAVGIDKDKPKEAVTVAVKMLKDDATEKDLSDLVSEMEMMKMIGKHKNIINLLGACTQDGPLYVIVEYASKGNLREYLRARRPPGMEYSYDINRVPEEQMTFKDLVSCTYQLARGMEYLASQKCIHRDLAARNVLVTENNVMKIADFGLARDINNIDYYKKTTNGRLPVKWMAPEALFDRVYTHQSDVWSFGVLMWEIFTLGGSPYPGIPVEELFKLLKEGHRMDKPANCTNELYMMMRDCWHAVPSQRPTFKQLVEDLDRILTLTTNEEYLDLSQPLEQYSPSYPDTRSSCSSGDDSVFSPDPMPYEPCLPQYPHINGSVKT
# [1] = biological target: T2, Ba/F3-FGFR3-transfected cells (Homo sapiens, UniProt P22607, cells depend on it, form not given); assay: Ba/F3-FGFR3 (minus IL3 or plus IL3) cellular proliferation assay; format: cell-based; settings: 24 hours, Alamar Blue
# T2 construct: BAF3-FGFR3 (MIN IL3 pIC50); other: minus IL3; 24 hours, Alamar Blue
# T2 sequence (P22607 whole entry, looked up, change not shown): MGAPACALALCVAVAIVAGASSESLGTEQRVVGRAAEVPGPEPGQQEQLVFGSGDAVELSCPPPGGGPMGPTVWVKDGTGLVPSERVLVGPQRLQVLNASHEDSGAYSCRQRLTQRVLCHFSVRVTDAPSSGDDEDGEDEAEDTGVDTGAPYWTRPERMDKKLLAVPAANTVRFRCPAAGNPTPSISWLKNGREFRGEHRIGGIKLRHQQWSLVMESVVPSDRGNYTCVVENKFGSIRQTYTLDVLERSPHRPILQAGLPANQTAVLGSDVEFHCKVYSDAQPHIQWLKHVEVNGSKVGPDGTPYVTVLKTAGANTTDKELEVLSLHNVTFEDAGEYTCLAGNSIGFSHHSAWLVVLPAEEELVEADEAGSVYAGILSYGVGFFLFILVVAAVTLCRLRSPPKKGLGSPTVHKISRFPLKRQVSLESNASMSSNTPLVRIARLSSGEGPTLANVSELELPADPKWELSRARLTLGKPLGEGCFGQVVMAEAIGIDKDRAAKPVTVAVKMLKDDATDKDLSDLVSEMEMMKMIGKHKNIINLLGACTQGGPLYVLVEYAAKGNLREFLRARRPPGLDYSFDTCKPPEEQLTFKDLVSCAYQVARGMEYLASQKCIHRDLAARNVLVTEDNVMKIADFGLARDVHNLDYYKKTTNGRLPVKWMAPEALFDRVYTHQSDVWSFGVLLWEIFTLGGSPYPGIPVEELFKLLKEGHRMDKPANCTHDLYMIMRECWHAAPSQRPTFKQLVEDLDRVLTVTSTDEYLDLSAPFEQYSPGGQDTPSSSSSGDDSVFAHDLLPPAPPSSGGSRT
# Experimental: Ba/F3-FGFR3 (Minus IL3 or Plus IL3) (Cellular Proliferation Assay)
# (§3) In a 384 well plate, 100 nl of compound dilution in DMSO was sprayed before adding 50 μl cell culture medium (phenol red free RPMI-1640, 10% FBS, 2 mM L-Glutamine and 50 μg/ml Gentamycin) containing 20000 cells per well of Ba/F3-FGFR3-transfected cells. Cells were put in an incubator at 37° C. and 5% CO2. After 24 hours, 10 μl of Alamar Blue solution (0.5 mM K3Fe(CN)6, 0.5 mM K4Fe(CN)6, 0.15 mM Resazurin and 100 mM Phosphate Buffer) was added to the wells, incubated for 4 hours at 37° C. and 5% CO2 before RFU's (Relative Fluorescence Units) (ex. 540 nm., em. 590 nm.) were measured in a fluorescence plate reader.
# (§4) In this assay, the inhibitory effect of different compound concentrations (range 10 μM to 0.1 nM) was determined and used to calculate an IC50 (M) and pIC50 (−log IC50) value. As a counterscreen the same experiment was performed in the presence of 10 ng/ml murine IL3.
# [2] = biological target: T3, Ba/F3-KDR-transfected cells (Homo sapiens, UniProt P35968, cells depend on it, form not given); assay: Ba/F3-KDR (minus IL3 or plus IL3) cellular proliferation assay; format: cell-based; settings: 24 hours, Alamar Blue
# T3 construct: BAF3-KDR (MIN IL3 pIC50); other: minus IL3; 24 hours, Alamar Blue
# T3 sequence (P35968 whole entry, looked up, change not shown): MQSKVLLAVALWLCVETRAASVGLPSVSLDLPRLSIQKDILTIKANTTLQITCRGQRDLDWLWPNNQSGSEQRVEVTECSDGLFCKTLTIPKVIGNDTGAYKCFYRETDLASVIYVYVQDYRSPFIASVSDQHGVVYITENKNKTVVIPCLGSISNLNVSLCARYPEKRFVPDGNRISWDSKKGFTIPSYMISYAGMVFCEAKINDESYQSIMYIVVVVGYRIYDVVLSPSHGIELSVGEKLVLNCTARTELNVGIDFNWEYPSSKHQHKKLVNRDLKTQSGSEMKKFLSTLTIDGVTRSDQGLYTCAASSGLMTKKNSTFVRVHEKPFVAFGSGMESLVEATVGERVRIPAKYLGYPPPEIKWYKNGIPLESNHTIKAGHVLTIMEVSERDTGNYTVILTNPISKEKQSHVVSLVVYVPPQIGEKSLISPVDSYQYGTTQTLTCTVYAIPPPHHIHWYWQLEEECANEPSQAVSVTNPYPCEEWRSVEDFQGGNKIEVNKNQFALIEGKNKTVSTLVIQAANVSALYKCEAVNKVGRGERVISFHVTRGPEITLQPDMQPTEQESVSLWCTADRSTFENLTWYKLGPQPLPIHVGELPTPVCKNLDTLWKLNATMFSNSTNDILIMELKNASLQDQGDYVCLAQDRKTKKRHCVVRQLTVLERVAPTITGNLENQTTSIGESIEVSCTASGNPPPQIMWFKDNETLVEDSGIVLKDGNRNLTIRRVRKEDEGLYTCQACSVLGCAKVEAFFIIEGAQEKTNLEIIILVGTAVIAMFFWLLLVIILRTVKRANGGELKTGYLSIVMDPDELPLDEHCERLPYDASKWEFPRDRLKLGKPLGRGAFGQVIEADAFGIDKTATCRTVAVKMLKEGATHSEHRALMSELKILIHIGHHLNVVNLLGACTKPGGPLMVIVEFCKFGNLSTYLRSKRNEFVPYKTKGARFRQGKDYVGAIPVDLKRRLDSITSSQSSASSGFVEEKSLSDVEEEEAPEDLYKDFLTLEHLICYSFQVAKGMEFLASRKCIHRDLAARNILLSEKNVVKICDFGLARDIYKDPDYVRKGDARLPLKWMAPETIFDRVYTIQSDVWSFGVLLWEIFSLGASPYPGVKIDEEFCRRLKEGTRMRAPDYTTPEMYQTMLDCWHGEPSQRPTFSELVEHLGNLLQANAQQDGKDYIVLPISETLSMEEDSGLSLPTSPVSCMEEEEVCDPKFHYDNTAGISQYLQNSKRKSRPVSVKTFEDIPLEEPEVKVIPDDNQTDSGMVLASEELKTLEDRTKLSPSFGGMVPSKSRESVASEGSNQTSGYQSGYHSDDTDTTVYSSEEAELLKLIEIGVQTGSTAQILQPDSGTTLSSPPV
# Experimental: Ba/F3-KDR (Minus IL3 or Plus IL3) (Cellular Proliferation Assay)
# as §3, with “Ba/F3-KDR-transfected” for “Ba/F3-FGFR3-transfected”
# as §4
# FGFR4 (h) = FGFR4 (h) (Homo sapiens, UniProt P22455); assay: FGFR4 (enzymatic assay), TR-FRET; format: biochemical; settings: 5 μM ATP; pIC50 = -log IC50 (M); read-out: FGFR 4 pIC50 (converted)
# Chain of FGFR4 (h) (P22455 22-802): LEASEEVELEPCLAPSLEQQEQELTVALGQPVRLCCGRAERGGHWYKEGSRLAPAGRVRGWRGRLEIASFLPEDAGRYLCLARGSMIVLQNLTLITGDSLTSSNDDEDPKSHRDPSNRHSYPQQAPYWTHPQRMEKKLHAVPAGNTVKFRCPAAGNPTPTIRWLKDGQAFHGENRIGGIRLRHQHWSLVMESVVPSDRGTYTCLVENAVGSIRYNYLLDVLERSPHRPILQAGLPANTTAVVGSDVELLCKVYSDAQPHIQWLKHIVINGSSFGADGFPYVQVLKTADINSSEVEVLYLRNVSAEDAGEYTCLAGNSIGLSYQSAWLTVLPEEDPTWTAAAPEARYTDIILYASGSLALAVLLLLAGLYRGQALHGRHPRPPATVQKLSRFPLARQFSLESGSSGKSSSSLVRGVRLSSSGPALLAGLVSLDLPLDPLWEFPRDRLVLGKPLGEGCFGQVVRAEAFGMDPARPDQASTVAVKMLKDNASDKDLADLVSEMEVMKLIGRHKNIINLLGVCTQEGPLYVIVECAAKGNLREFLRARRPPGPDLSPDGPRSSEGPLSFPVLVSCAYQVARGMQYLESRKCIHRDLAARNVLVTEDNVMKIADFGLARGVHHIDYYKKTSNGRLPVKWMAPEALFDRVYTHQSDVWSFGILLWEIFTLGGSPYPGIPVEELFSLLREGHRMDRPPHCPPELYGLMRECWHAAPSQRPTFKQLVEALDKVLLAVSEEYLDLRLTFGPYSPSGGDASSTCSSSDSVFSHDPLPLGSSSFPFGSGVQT
# FGFR3 = biological target: T4, FGFR3 (Homo sapiens, UniProt P22607); assay: Enzyme binding assay (KINOMEscan) FGFR3; settings: pKd = -log Kd (M), read-out: FGFR3_pKd (converted)
# T4 construct: purchased DiscoveRx Corporation
# T4 sequence (P22607 23-806): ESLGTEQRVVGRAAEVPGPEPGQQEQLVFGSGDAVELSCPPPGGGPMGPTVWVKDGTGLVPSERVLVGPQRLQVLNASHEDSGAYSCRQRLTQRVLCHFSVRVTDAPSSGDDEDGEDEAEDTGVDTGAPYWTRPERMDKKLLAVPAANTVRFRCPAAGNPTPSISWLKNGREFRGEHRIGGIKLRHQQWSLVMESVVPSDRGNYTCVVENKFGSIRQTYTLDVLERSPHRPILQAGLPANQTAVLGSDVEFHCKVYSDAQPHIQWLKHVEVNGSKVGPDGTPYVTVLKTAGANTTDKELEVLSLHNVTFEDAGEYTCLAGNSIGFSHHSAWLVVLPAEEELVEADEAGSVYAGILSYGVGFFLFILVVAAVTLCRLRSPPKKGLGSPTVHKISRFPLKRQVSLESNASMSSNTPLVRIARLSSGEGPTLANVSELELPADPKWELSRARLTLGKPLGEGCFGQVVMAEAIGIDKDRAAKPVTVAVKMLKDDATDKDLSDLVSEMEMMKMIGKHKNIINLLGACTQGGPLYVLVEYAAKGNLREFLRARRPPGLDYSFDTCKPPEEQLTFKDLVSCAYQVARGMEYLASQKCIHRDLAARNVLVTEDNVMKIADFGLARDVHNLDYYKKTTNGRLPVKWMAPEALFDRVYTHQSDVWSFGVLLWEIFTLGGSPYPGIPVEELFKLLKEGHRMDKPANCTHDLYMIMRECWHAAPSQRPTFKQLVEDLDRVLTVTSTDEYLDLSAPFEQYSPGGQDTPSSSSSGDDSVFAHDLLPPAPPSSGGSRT
# Experimental: as §1, §2
# KDR (h) = KDR (h) (Homo sapiens, UniProt P35968); assay: KDR (VEGFR2) (enzymatic assay), TR-FRET; format: biochemical; settings: 3 μM ATP; pIC50 = -log IC50 (M); read-out: VEGFR KDR pIC50 (converted)
# Experimental: KDR (VEGFR2) (Enzymatic Assay)
# In a final reaction volume of 30 μL, KDR (h) (150 ng/ml) was incubated with 50 mM HEPES pH 7.5, 6 mM MnCl2, 1 mM DTT, 0.1 mM Na3VO4, 0.01% Triton-X-100, 500 nM Btn-Flt3 and 3 μM ATP in the presence of compound (1% DMSO final). After incubation for 120 minutes at room temperature the reaction was stopped with 2.27 nM EU-anti P-Tyr, 7 mM EDTA, 31.25 nM SA-XL-665 and 0.02% BSA which was present for 60 minutes at room temperature. Time-Resolved Fluorescence Resonance Energy Transfer (TR-FRET) signal (ex340 nm. Em 620 nm, em 655 nm) was measured afterwards and results are expressed in RFU (Relative Fluorescence Units). In this assay, the inhibitory effect of different compound concentrations (range 10 μM to 0.1 nM) was determined and used to calculate an IC50 (M) and pIC50 (−log IC50) value.
# FGFR2 = biological target: T5, FGFR2 (Homo sapiens, UniProt P21802); assay: Enzyme binding assay (KINOMEscan) FGFR2; settings: pKd = -log Kd (M), read-out: FGFR2_pKd (converted)
# T5 construct: purchased DiscoveRx Corporation
# T5 sequence (P21802 22-821): as the sequence (P21802 22-821) above
# Experimental: as §1, §2
# [3] = biological target: T6, Ba/F3-FGFR1-transfected cells (Homo sapiens, UniProt P11362); assay: Ba/F3-FGFR1 (minus IL3 or plus IL3) cellular proliferation assay; format: cell-based; settings: 24 hours, Alamar Blue
# T6 construct: other: minus IL3; 24 hours, Alamar Blue
# Experimental: Ba/F3-FGFR1 (Minus IL3 or Plus IL3) (Cellular Proliferation Assay)
# as §3, with “Ba/F3-FGFR1-transfected” for “Ba/F3-FGFR3-transfected”
# as §4
# FGFR4 = biological target: T7, FGFR4 (Homo sapiens, UniProt P22455); assay: Enzyme binding assay (KINOMEscan) FGFR4; settings: pKd = -log Kd (M), read-out: FGFR4_pKd (converted)
# T7 construct: purchased DiscoveRx Corporation
# T7 sequence (P22455 22-802): as the sequence (P22455 22-802) above
# Experimental: as §1, §2
# FGFR1 (h) = FGFR1 (h) (Homo sapiens, UniProt P11362); assay: FGFR1 (enzymatic assay), TR-FRET; format: biochemical
# VEGFR2 = biological target: T8, VEGFR2 (Homo sapiens, UniProt P35968); assay: Enzyme binding assay (KINOMEscan) VEGFR2; settings: pKd = -log Kd (M), read-out: VEGFR2_pKd (converted)
# T8 construct: purchased DiscoveRx Corporation
# Experimental: as §1, §2
# [4] = biological target: Ba/F3-FGFR4-transfected cells (Homo sapiens, UniProt P22455, cells depend on it, form not given); assay: Ba/F3-FGFR4 cellular proliferation assay; format: cell-based; settings: 24 hours, Alamar Blue
# Experimental: Ba/F3-FGFR4 (Cellular Proliferation Assay)
# as §3, with “Ba/F3-FGFR4-transfected” for “Ba/F3-FGFR3-transfected”
# In this assay, the inhibitory effect of different compound concentrations (range 10 μM to 0.1 nM) was determined and used to calculate an IC50 (M) and pIC50 (−log IC50) value.
# Chain of FGFR3 (h) (P22607 23-806): as the sequence (P22607 23-806) above
smiles,measurement,setting,value
COc1cc(OC)cc(N(CCO)c2ccc3ncn(-c4ccccc4)c(=O)c3c2)c1 [Compound 7],IC50,FGFR3 (h),3.16e-07 M
same,Kd,FGFR1,> 1e-06 M
same,IC50,FGFR2 (h),3.98e-07 M
same,BAF3-FGFR3 (MIN IL3 pIC50),[1],<5
same,BAF3-KDR (MIN IL3 pIC50),[2],<5
same,IC50,FGFR4 (h),3.98e-06 M
same,Kd,FGFR3,> 1e-06 M
same,IC50,KDR (h),> 1e-06 M
same,melting point,,171 °C
same,Kd,FGFR2,> 1e-06 M
same,BAF3-FGFR1 (MIN IL3 pIC50),[3],<5
same,Kd,FGFR4,> 1e-06 M
same,pIC50,FGFR1 (h),6.20
same,Kd,VEGFR2,> 1e-06 M
same,BAF3-FGFR4 (pIC50),[4],<5
COc1cc(OC)cc(N(CCO)c2ccc3ncn(-c4cnn(C)c4)c(=O)c3c2)c1 [Compound 8],IC50,FGFR3 (h),2e-08 M
same,IC50,FGFR2 (h),2.51e-08 M
same,BAF3-FGFR3 (MIN IL3 pIC50),[1],5.6
same,BAF3-KDR (MIN IL3 pIC50),[2],<5
same,IC50,FGFR4 (h),1.58e-07 M
same,IC50,KDR (h),7.94e-07 M
same,melting point,,185 °C
same,BAF3-FGFR1 (MIN IL3 pIC50),[3],5.4
same,pIC50,FGFR1 (h),7.30
same,BAF3-FGFR4 (pIC50),[4],5.2
COc1cc(OC)c(Cl)c(N(CCNC(C)C)c2ccc3ncn(-c4cnn(C)c4)c(=O)c3c2)c1Cl [Compound 11],IC50,FGFR3 (h),3.98e-08 M
same,IC50,FGFR2 (h),6.31e-08 M
same,BAF3-FGFR3 (MIN IL3 pIC50),[1],7.3
same,BAF3-KDR (MIN IL3 pIC50),[2],5.4
same,IC50,FGFR4 (h),1.58e-07 M
same,IC50,KDR (h),5.01e-07 M
same,melting point,,195 °C
same,BAF3-FGFR1 (MIN IL3 pIC50),[3],7.4
same,pIC50,FGFR1 (h),7.90
same,BAF3-FGFR4 (pIC50),[4],6.3
COc1cc(OC)c(F)c(N(CCNC(C)C)c2ccc3ncn(-c4cnn(C)c4)c(=O)c3c2)c1F [Compound 19],IC50,FGFR3 (h),1.58e-08 M
same,Kd,FGFR1,1.58e-09 M
same,IC50,FGFR2 (h),1.58e-08 M
same,BAF3-FGFR3 (MIN IL3 pIC50),[1],8.6
same,BAF3-KDR (MIN IL3 pIC50),[2],6.2
same,IC50,FGFR4 (h),2e-08 M
same,Kd,FGFR3,5.01e-09 M
same,IC50,KDR (h),1.26e-07 M
same,melting point,,162 °C
same,Kd,FGFR2,5.01e-09 M
same,BAF3-FGFR1 (MIN IL3 pIC50),[3],8.8
same,Kd,FGFR4,5.01e-09 M
same,pIC50,FGFR1 (h),8.30
same,Kd,VEGFR2,1.58e-08 M
same,BAF3-FGFR4 (pIC50),[4],8.2
COc1cc(OC)c(F)c(N(CCO)c2ccc3ncn(-c4ccccc4)c(=O)c3c2)c1F [Compound 1],IC50,FGFR3 (h),6.31e-09 M
same,IC50,FGFR2 (h),6.31e-09 M
same,BAF3-FGFR3 (MIN IL3 pIC50),[1],6.4
same,BAF3-KDR (MIN IL3 pIC50),[2],~5
same,IC50,FGFR4 (h),3.98e-08 M
same,IC50,KDR (h),2.51e-07 M
same,melting point,,169 °C
same,BAF3-FGFR1 (MIN IL3 pIC50),[3],6.0
same,pIC50,FGFR1 (h),8.00
same,BAF3-FGFR4 (pIC50),[4],5.6
COc1cc(OC)cc(C(=O)c2ccc3ncn(-c4cnn(C)c4)c(=O)c3c2)c1 [Compound 24],IC50,FGFR3 (h),7.94e-07 M
same,IC50,FGFR2 (h),7.94e-07 M
same,BAF3-FGFR3 (MIN IL3 pIC50),[1],<5
same,BAF3-KDR (MIN IL3 pIC50),[2],<5
same,IC50,FGFR4 (h),> 1e-06 M
same,IC50,KDR (h),> 1e-06 M
same,melting point,,194 °C
same,BAF3-FGFR1 (MIN IL3 pIC50),[3],<5
same,pIC50,FGFR1 (h),< 6.00
same,BAF3-FGFR4 (pIC50),[4],<5
COc1cc(OC)c(F)c(N(Cc2ncc[nH]2)c2ccc3ncn(-c4cnn(C)c4)c(=O)c3c2)c1F [Compound 22],IC50,FGFR3 (h),3.16e-09 M
same,IC50,FGFR2 (h),5.01e-09 M
same,BAF3-FGFR3 (MIN IL3 pIC50),[1],7.4
same,BAF3-KDR (MIN IL3 pIC50),[2],5.3
same,IC50,FGFR4 (h),5.01e-09 M
same,IC50,KDR (h),1.26e-07 M
same,melting point,,231 °C
same,BAF3-FGFR1 (MIN IL3 pIC50),[3],6.8
same,pIC50,FGFR1 (h),8.40
same,BAF3-FGFR4 (pIC50),[4],6.7
